Several values for one entry are separate records, joined by “and”; a condition that tells them apart may be missing. Identical values can stand only once.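 Exposure lasted 48 hours, with cells grown in 96-well plates and compounds tested at five concentrations. Here, GI50 denotes the concentration required for 50% inhibition of growth. TGI denotes the concentration required for complete inhibition of growth.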
What was measured:
Experiment in all cases: DTP human tumour cell line panel, 48 h
[1] = tested on: SNB-19 CNS
[2] = tested on: U251 CNS
[3] = tested on: OVCAR-3 ovarian
[4] = tested on: TK-10 renal
[5] = tested on: HS 578T breast
[6] = tested on: UO-31 renal
[7] = tested on: PC-3 prostate
[8] = tested on: SNB-75 CNS
[9] = tested on: SK-MEL-5 melanoma
[10] = tested on: COLO 205 colon

Compound	GI50 [1]	TGI [1]	GI50 [2]	TGI [2]	GI50 [3]	TGI [3]	GI50 [4]	TGI [4]	GI50 [5]	TGI [5]	GI50 [6]	TGI [6]	GI50 [7]	TGI [7]	GI50 [8]	TGI [8]	GI50 [9]	TGI [9]	GI50 [10]	TGI [10]
CC1(C)N=C(N)N=C(N)N1c1cccc(CCc2ccccc2)c1	0.696 µM	> 100 µM	0.113 µM	> 100 µM	0.44 µM	24.9 µM	1.9 µM	> 100 µM	22.4 µM	> 100 µM	> 100 µM	> 100 µM	0.11 µM	> 59 µM	0.707 µM	46.4 µM	0.429 µM	8.82 µM	0.574 µM	16.9 µM
CSC1=Nc2c(c(C)c(-c3ccccc3)n2COC(CO)CO)C2=NC(=O)CC(C)N12 (centres undefined)	> 100 µM	> 100 µM	> 100 µM	> 100 µM	> 100 µM	> 100 µM	> 100 µM	> 100 µM	> 100 µM	> 100 µM	> 100 µM	> 100 µM	> 100 µM	> 100 µM	85.3 µM	> 100 µM	> 100 µM	> 100 µM	> 100 µM	> 100 µM
Nn1c(-c2ccc(Cl)cc2)nc2c(-c3ccc(Cl)cc3)nc3ccc(Cl)cc3c2c1=O	9.06 µM	47.7 µM	3.07 µM	12.7 µM	2.7 µM	8.68 µM	22.4 µM	58.4 µM	12.1 µM	85 µM	16.9 µM	> 100 µM	60.7 µM	> 100 µM	4.79 µM	19.5 µM	56.6 µM	> 100 µM	19.5 µM	> 100 µM
Cc1cc(NN=C(c2ccc(O)cc2)c2ccc(O)cc2)c([N+](=O)[O-])cc1[N+](=O)[O-]	–	0.935 µM	5.39 µM	81.2 µM	4.14 µM	19.4 µM	4.53 µM	37.5 µM	5.04 µM	39.8 µM	4.02 µM	23.7 µM	3.23 µM	–	6.84 µM	60.5 µM	0.308 µM	3.74 µM	5.87 µM	40.5 µM
C=CC(=O)Nc1cc2c(Nc3ccc(F)c(Cl)c3)ncnc2cc1C#CC(C)(C)N1CCN(C)CC1	3.58 µM	5.05 µM	2.66 µM	5.48 µM	1.13 µM	2.85 µM	0.0522 µM	2.03 µM	2.28 µM	8.47 µM	0.244 µM	4.4 µM	1.93 µM	5.31 µM	1.16 µM	3.86 µM	4.69 µM	7.42 µM	2.09 µM	5.43 µM
COc1ccccc1C(=O)N(Cc1ccccc1)c1ccc(Cl)c(C(=O)OC(C)C)c1	–	> 100 µM	–	> 100 µM	–	> 100 µM	–	> 100 µM	–	> 100 µM	–	54.1 µM	–	75.3 µM	–	> 77.5 µM	–	26.1 µM	–	50.9 µM
O=c1[nH]cnc2n[nH]nc12	–	> 100 µM	–	> 100 µM	–	63.8 µM	–	> 100 µM	6.11 µM	> 100 µM	–	> 100 µM	5.99 µM	> 100 µM	–	> 69.8 µM	–	> 100 µM	–	> 100 µM
Cn1c(=O)c2c(nc(N/N=C/c3ccccc3C(=O)O)n2C)n(C)c1=O	–	> 100 µM	–	> 100 µM	–	> 100 µM	–	> 100 µM	–	> 100 µM	–	> 100 µM	–	> 100 µM	–	> 100 µM	–	> 100 µM	–	> 100 µM
N#[N+]c1ccc(Nc2ccccc2)cc1	> 50 µg/mL	> 50 µg/mL	> 50 µg/mL	> 50 µg/mL	> 50 µg/mL	> 50 µg/mL	> 50 µg/mL	> 50 µg/mL	> 50 µg/mL	> 50 µg/mL	> 50 µg/mL	> 50 µg/mL	> 50 µg/mL	> 50 µg/mL	> 50 µg/mL	> 50 µg/mL	> 50 µg/mL	> 50 µg/mL	> 50 µg/mL	> 50 µg/mL
CCOC(=O)c1c(NC(=O)c2ccc(Cl)cc2)sc2c(CN(C)C)c(O)ccc12	5.47 µM	24.8 µM	4.85 µM	23.5 µM	16.2 µM	> 100 µM	14.5 µM	34.5 µM	4.06 µM	26.5 µM	4.88 µM	25.7 µM	8.44 µM	37.3 µM	3.25 µM	19 µM	10.8 µM	35.1 µM	1.87 µM	4.1 µM
Clc1ccc(CN2CCCN(Cc3ccc(Cl)cc3)C2c2cc3ccccc3c3ccccc23)cc1	–	> 100 µM	–	> 100 µM	–	> 100 µM	–	> 100 µM	–	> 100 µM	–	> 100 µM	–	> 100 µM	–	78.5 µM	–	32.7 µM	–	40.3 µM
CC(=O)OCC1OC(n2c3c(cc(C#N)c2=S)CCCC3)C(OC(C)=O)C(OC(C)=O)C1OC(C)=O (centres undefined)	> 100 µM and 21.5 µM	> 100 µM and 54.4 µM	> 100 µM and 21.9 µM	> 100 µM and 53 µM	45.2 µM and > 100 µM	> 100 µM	–	> 100 µM	> 100 µM and 25.5 µM	> 100 µM	–	> 100 µM	36.6 µM and > 100 µM	> 100 µM	> 100 µM and 14.6 µM	> 100 µM and 50.4 µM	–	> 100 µM	–	> 100 µM
CCc1ccc2c(c1)N(CCO)C1=C(C(=O)OC1)C2c1cc(OC)c(OC)c(OC)c1 (centres undefined)	0.263 µM	> 50 µM	0.182 µM	> 50 µM	0.112 µM	0.274 µM	0.248 µM	> 50 µM	0.218 µM	> 50 µM	0.457 µM	> 50 µM	0.196 µM	> 50 µM	0.134 µM	> 50 µM	0.126 µM	0.581 µM	0.151 µM	0.437 µM
COc1cc2c3cc1Oc1c(OC)c(OC)cc4c1C(Cc1ccc(O)c(c1)Oc1ccc(cc1)CC3N(C)CC2)N(C)CC4 (centres undefined)	31.5 µM	65.8 µM and > 100 µM	11.5 µM	69.4 µM and 28.9 µM	–	39.1 µM	20.8 µM	> 100 µM and 39.3 µM	15.3 µM	55.3 µM and 43.4 µM	13.9 µM	35.7 µM and 31.9 µM	23.4 µM	> 100 µM	11.3 µM	52.7 µM and 24 µM	11 µM	52 µM and 23.3 µM	14.3 µM	> 100 µM and 30.4 µM
C[As](C)SC1OCC(O)C(O)C1O (centres undefined)	4.22 µM	27.4 µM	0.46 µM	1.71 µM	0.081 µM	0.412 µM	< 0.0258 µM	0.19 µM	0.276 µM	0.718 µM	0.109 µM	0.53 µM	0.506 µM	5.73 µM	0.805 µM	2.36 µM	0.166 µM	0.382 µM	0.747 µM	3.37 µM
COc1ccccc1NC(=O)C1=C(C)NC(C)=C(C(=O)Nc2ccccc2OC)C1c1ccco1	–	67.6 µM	–	47 µM	–	9.02 µM	–	> 79.7 µM	–	9 µM	–	> 83.5 µM	–	> 100 µM	–	29.7 µM	–	15.4 µM	–	23 µM
NC1=NCN(C2OC(CO)C(O)C2O)C(=O)N1 (centres undefined)	–	2220 µM	–	2410 µM	–	361 µM	–	1730 µM	–	734 µM	–	872 µM	–	1530 µM	–	392 µM	–	335 µM	–	584 µM
COc1ccc(-c2c(N)noc2-c2cc(OC)c3c(c2)OCCO3)cc1	0.0277 µM	> 100 µM	< 0.0119 µM	–	< 0.01 µM	< 0.0126 µM	0.562 µM	> 56.6 µM	< 0.0106 µM	> 100 µM	< 0.024 µM	56.9 µM	< 0.0157 µM	> 40.7 µM	< 0.01 µM	39 µM	< 0.01 µM	0.176 µM	< 0.01 µM	0.0398 µM
